Source: patent US20160046610A1, “3-HETEROARYL SUBSTITUTED INDAZOLES” (BAYER PHARMA AKTIENGESELLSCHAFT, priority 2013, published 2016)
Where two headings read alike, the source gives them in different places.

Columns and labels:
[1] = target: T1, catalytic domain of human Bub1 (amino acids 704-1085) (Homo sapiens, UniProt O43683); test: Bub1 kinase assay (TR-FRET); type: biochemical
T1 construct: catalytic domain of human Bub1 (amino acids 704-1085); His6 (N); made in house; host or cells: Hi5 insect cells
T1 sequence (O43683 704-1085): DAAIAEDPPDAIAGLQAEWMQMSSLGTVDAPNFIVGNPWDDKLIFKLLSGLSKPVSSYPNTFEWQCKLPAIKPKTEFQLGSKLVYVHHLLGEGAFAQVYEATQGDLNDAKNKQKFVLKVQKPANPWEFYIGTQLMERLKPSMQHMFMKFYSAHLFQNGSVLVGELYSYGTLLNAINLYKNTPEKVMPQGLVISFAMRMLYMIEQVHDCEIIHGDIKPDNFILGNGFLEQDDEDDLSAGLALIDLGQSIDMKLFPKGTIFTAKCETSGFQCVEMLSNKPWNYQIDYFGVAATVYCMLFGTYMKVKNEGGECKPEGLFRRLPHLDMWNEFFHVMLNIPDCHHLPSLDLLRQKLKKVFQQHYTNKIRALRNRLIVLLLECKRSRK
Description: To this end, 100-fold concentrated compound solutions (in DMSO) were previously prepared by serial dilution (1:3.4) of 2 mM stocks in a clear low volume 384-well source microtiter plate (Greiner Bio-One, Frickenhausen, Germany), from which 50 nl of compounds were transferred into a black low volume test microtiter plate from the same supplier. […] The resulting mixture (5 μL final volume) was incubated at 22° C. during 60 min., and the reaction was stopped by the addition of 5 μL of an aqueous EDTA-solution (50 mM EDTA, in 100 mM HEPES pH 7.5 and 0.2% (w/v) bovine serum albumin) which also contained the TR-FRET detection reagents (0.2 μM streptavidin-XL665 [Cisbio Bioassays, Codolet, France] and 1 nM anti-phosho-Serine antibody [Merck Millipore, cat. #35-001] and 0.4 nM LANCE EU-W1024 labeled anti-mouse IgG antibody [Perkin-Elmer, product no. AD0077, alternatively a Terbium-cryptate-labeled anti-mouse IgG antibody from Cisbio Bioassays can be used]). The stopped reaction mixture was further incubated 1 h at 22° C. in order to allow the formation of complexes between peptides and detection reagents. Subsequently, the amount of product was evaluated by measurement of the resonance energy transfer from the Eu-chelate-antibody complex recognizing the Phosphoserine residue to the streptavidin-XL665 bound to the biotin moiety of the peptide. […] IC50 values were calculated by fitting the normalized inhibition data to a 4-parameter logistic equation (Minimum, Maximum, IC50, Hill; Y=Max+(Min−Max)/(1+(X/IC50)Hill)).

[2] = system: HeLa cell line; test: Proliferation assay (HeLa cell line), crystal violet staining; type: cell-based; conditions: Homo sapiens, 96 h, read-out: Biological Assay 2: Proliferation assay (HeLa cell line) median IC50
Description: Cultivated tumor cells (cells were ordered from ATCC, except HeLa-MaTu and HeLa-MaTu-ADR, which were ordered from EPO-GmbH, Berlin) were plated at a density of 1000 to 5000 cells/well, depending on the growth rate of the respective cell line, in a 96-well multititer plate in 200 μL of their respective growth medium supplemented 10% fetal calf serum. After 24 hours, the cells of one plate (zero-point plate) were stained with crystal violet (see below), while the medium of the other plates was replaced by fresh culture medium (200 μL), to which the test substances were added in various concentrations (0 μM, as well as in the range of 0.001-10 μM; the final concentration of the solvent dimethyl sulfoxide was 0.5%). The cells were incubated for 4 days in the presence of test substances. Cell proliferation was determined by staining the cells with crystal violet: the cells were fixed by adding 20 μl/measuring point of an 11% glutaric aldehyde solution for 15 minutes at room temperature. After three washing cycles of the fixed cells with water, the plates were dried at room temperature. The cells were stained by adding 100 μl/measuring point of a 0.1% crystal violet solution (pH 3.0). After three washing cycles of the stained cells with water, the plates were dried at room temperature. The dye was dissolved by adding 100 μl/measuring point of a 10% acetic acid solution. Absorption was determined by photometry at a wavelength of 595 nm. The change of cell number, in percent, was calculated by normalization of the measured values to the absorption values of the zero-point plate (=0%) and the absorption of the untreated (0 μm) cells (=100%). The IC50 values were determined by means of a 4 parameter fit using the company's own software.

[3] = TR-FRET, recombinant catalytic domain of human Bub1, ATP 10 μM, peptide substrate 1 μM, median value, read-out: Biological Assay 1: Bub1 kinase assay median IC50
[4] = HeLa cells, incubated for 4 days with test substance, crystal violet staining, median value

IC50 [1, 3] [nM] | IC50 ([2]; HeLa) [nM] | IC50 [1] [nM] | IC50 [2, 4] [nM] | Structure (SMILES)
1500 | > 10000 |  |  | CCOc1cc(F)c(Cn2nc(-c3ncc(OC)c(Nc4ccccc4)n3)c3ccccc32)c(F)c1 [Example 2-1-1, 2-[1-(4-ethoxy-2,6-difluorobenzyl)-1H-indazol-3-yl]-5-methoxy-N-phenylpyrimidin-4-amine]
2600 | 3600 |  |  | COc1ccc(Cn2nc(-c3ncc(OC)c(Nc4cccnc4)n3)c3ccccc32)cc1 [Example 2-1-3, 5-methoxy-2-[1-(4-methoxybenzyl)-1H-indazol-3-yl]-N-(pyridin-3-yl)pyrimidin-4-amine]
3300 |  |  |  | COc1ccc(Cn2nc(-c3ncc(OC)c(Nc4ccnn4C)n3)c3ccccc32)cc1 [Example 2-1-4, 5-methoxy-2-[1-(4-methoxybenzyl)-1H-indazol-3-yl]-N-(1-methyl-1H-pyrazol-5-yl)pyrimidin-4-amine]
3700 |  |  |  | COc1ccc(Cn2nc(-c3ncc(OC)c(Nc4ccccc4)n3)c3ccccc32)cc1 [Example 2-1-5, 5-methoxy-2-[1-(4-methoxybenzyl)-1H-indazol-3-yl]-N-phenylpyrimidin-4-amine]
8800 |  |  |  | COc1ccc(Cn2nc(-c3ncc(OC)c(Nc4ccc(F)cc4)n3)c3ccccc32)cc1 [Example 2-1-6, N-(4-fluorophenyl)-5-methoxy-2-[1-(4-methoxybenzyl)-1H-indazol-3-yl]pyrimidin-4-amine]
11 | > 10000 |  |  | CCOc1cc(F)c(Cn2nc(-c3ncc(OC)c(Nc4ccnnc4)n3)c3ccccc32)c(F)c1 [Example 2-2-1, N-{2-[1-(4-ethoxy-2,6-difluorobenzyl)-1H-indazol-3-yl]-5-methoxypyrimidin-4-yl}pyridazin-4-amine]
22 | > 10000 |  |  | CCOc1cc(F)c(Cn2nc(-c3ncc(OC)c(Nc4ccncn4)n3)c3ccccc32)c(F)c1 [Example 2-2-2, 2-[1-(4-ethoxy-2,6-difluorobenzyl)-1H-indazol-3-yl]-5-methoxy-N-(pyrimidin-4-yl)pyrimidin-4-amine]
25 | 5000 |  |  | CCOc1cc(F)c(Cn2nc(-c3cc(Nc4ccncn4)ncn3)c3ccccc32)c(F)c1 [Example 2-2-3, 6-[1-(4-ethoxy-2,6-difluorobenzyl)-1H-indazol-3-yl]-N-(pyrimidin-4-yl)pyrimidin-4-amine]
 |  | 290 |  | CCOc1cc(F)c(Cn2nc(-c3ncc(OC)c(Nc4ccccc4C(=O)O)n3)c3ccccc32)c(F)c1 [Example 2-2-4, 2-({2-[1-(4-ethoxy-2,6-difluorobenzyl)-1H-indazol-3-yl]-5-methoxypyrimidin-4-yl}amino)benzoic acid]
 |  | 180 |  | CCOc1cc(F)c(Cn2nc(-c3ncc(OC)c(Nc4ccc(F)cc4C(=O)O)n3)c3ccccc32)c(F)c1 [Example 2-2-5, 2-({2-[1-(4-ethoxy-2,6-difluorobenzyl)-1H-indazol-3-yl]-5-methoxypyrimidin-4-yl}amino)-5-fluorobenzoic acid]
660 | > 10000 |  |  | CCOc1cc(F)c(Cn2nc(-c3ncc(OC)c(Nc4cncc(C(=O)NC)n4)n3)c3ccccc32)c(F)c1 [Example 2-2-6, 6-({2-[1-(4-ethoxy-2,6-difluorobenzyl)-1H-indazol-3-yl]-5-methoxypyrimidin-4-yl}amino)-N-methylpyrazine-2-carboxamide]
44 | > 10000 |  |  | CCCc1ccc(Cn2nc(-c3ncc(OC)c(Nc4ccncn4)n3)c3ccccc32)cc1 [Example 2-3-1, 5-methoxy-2-[1-(4-propylbenzyl)-1H-indazol-3-yl]-N-(pyrimidin-4-yl)pyrimidin-4-amine]
240 | 6900 |  |  | CCOc1cc(F)c(Cn2nc(-c3ncc(OC)c(Nc4ccc(O)cc4)n3)c3ccccc32)c(F)c1 [Example 2-4-1, 4-({2-[1-(4-ethoxy-2,6-difluorobenzyl)-1H-indazol-3-yl]-5-methoxypyrimidin-4-yl}amino)phenol]
14 | > 10000 |  |  | CCOc1cc(F)c(Cn2nc(-c3cc(Nc4ccncn4)ccn3)c3ccccc32)c(F)c1 [Example 2-5-1, N-{2-[1-(4-ethoxy-2,6-difluorobenzyl)-1H-indazol-3-yl]pyridin-4-yl}pyrimidin-4-amine]
21 | 2900 |  |  | CCOc1cc(F)c(Cn2nc(-c3cc(Nc4ncncn4)ccn3)c3ccccc32)c(F)c1 [Example 2-5-2, N-{2-[1-(4-ethoxy-2,6-difluorobenzyl)-1H-indazol-3-yl]pyridin-4-yl}-1,3,5-triazin-2-amine]
720 | > 10000 |  |  | CCOc1cc(F)c(Cn2nc(-c3cc(Nc4cnsc4)ccn3)c3ccccc32)c(F)c1 [Example 2-5-3, 2-[1-(4-ethoxy-2,6-difluorobenzyl)-1H-indazol-3-yl]-N-(1,2-thiazol-4-yl)pyridin-4-amine]
 |  | 220 |  | CCOc1cc(F)c(Cn2nc(-c3cc(Nc4ccncn4)ccn3)c3cnccc32)c(F)c1 [Example 2-5-4, N-{2-[1-(4-ethoxy-2,6-difluorobenzyl)-1H-pyrazolo[4,3-c]pyridin-3-yl]pyridin-4-yl}pyrimidin-4-amine]
2800 |  |  |  | COc1ccc(Cn2nc(-c3nccc(Nc4nnc(N)[nH]4)n3)c3ccccc32)cc1 [Example 2-5-5, N-{2-[1-(4-methoxybenzyl)-1H-indazol-3-yl]pyrimidin-4-yl}-4H-1,2,4-triazole-3,5-diamine]
 |  | 13 | > 10000 | Fc1cccc(F)c1Cn1nc(-c2cc(Nc3ccncn3)ccn2)c2ccccc21 [Example 2-6-2, N-{2-[1-(2,6-difluorobenzyl)-1H-indazol-3-yl]pyridin-4-yl}pyrimidin-4-amine]
 |  | 28 | 6900 | CCCc1ccc(Cn2nc(-c3cc(Nc4ccncn4)ccn3)c3ccccc32)cc1 [Example 2-6-3, N-{2-[1-(4-propylbenzyl)-1H-indazol-3-yl]pyridin-4-yl}pyrimidin-4-amine]
 |  | 17000 |  | Cn1cc(Nc2ccnc(-c3nn(Cc4ccccc4F)c4ccccc34)c2)cn1 [Example 2-6-4, 2-[1-(2-fluorobenzyl)-1H-indazol-3-yl]-N-(1-methyl-1H-pyrazol-4-yl)pyridin-4-amine]
17 | 2400 |  |  | CCOc1cc(F)c(Cn2nc(-c3cc(Nc4cn[nH]c4)ccn3)c3ccccc32)c(F)c1 [Example 2-7-1, 2-[1-(4-ethoxy-2,6-difluorobenzyl)-1H-indazol-3-yl]-N-(1H-pyrazol-4-yl)pyridin-4-amine]
120 |  |  |  | CCOc1cc(F)c(Cn2nc(-c3cc(Nc4ncnn4CC)ccn3)c3ccccc32)c(F)c1 [Example 2-8-1, 2-[1-(4-ethoxy-2,6-difluorobenzyl)-1H-indazol-3-yl]-N-(1-ethyl-1H-1,2,4-triazol-5-yl)pyridin-4-amine]
800 |  |  |  | CCOc1cc(F)c(Cn2nc(-c3cc(Nc4nnc[nH]4)ccn3)c3ccccc32)c(F)c1 [Example 2-8-2, 2-[1-(4-ethoxy-2,6-difluorobenzyl)-1H-indazol-3-yl]-N-(4H-1,2,4-triazol-3-yl)pyridin-4-amine]
13 | > 10000 |  |  | Oc1cnc(-c2nn(Cc3ccccc3F)c3ccccc23)nc1Nc1ccncn1 [Example 2-9-1, 2-[1-(2-fluorobenzyl)-1H-indazol-3-yl]-4-(pyrimidin-4-ylamino)pyrimidin-5-ol]
 | 3400 | 20 |  | COc1ccc(Cn2nc(-c3ncc(OC)c(Nc4cn[nH]c4)n3)c3ccccc32)cc1 [Example 2-10-1, 5-methoxy-2-[1-(4-methoxybenzyl)-1H-indazol-3-yl]-N-(1H-pyrazol-4-yl)pyrimidin-4-amine]
